Values quoted from earlier work as cited in US8450357B2, “Compositions comprising an aryl pyrazole and/or a formamidine, methods and uses thereof” (Merial Limited, priority 2008, dated 2013).

Details: 14C radiolabeled drug, spot-on administration, beagle dogs; cited from earlier work

Compound: N#Cc1nn(-c2c(Cl)cc(C(F)(F)F)cc2Cl)c(N)c1[S+]([O-])C(F)(F)F (stereo not shown) [fipronil, 5-amino-3-cyano-1-(2,6-dichloro-4-trifluoromethylphenyl)-4-trifluoromethylsulfinylpyrazole]
- time detected in the whole skin after treatment: up to 56 days
